In patent US12076331B2, “Inositol derivatives for use in pathological crystallization” (ETH Zurich, priority 2015, dated 2024):

Columns and labels:
[1] = In-solution screening of CaP precipitation and aggregation in artificial renal tubular fluid (RTF); type: physicochemical; details: 9 mM phosphate, 8 mM calcium, 4 h
Experimental: (§1) Effects of (A) OEG2-IP5, (B) OEG11-IP5, (C) (OEG2)2-IP4, (D) (OEG11)2-IP4 and (E) OEG8-(IP5)2. on CaP precipitation in RTF spiked with 9 mM disodium phosphate and 8 mM calcium chloride were assessed by light microscopy followed by automated image analysis at t=4 h. Quantification of the total area covered with CaP precipitates/total area field of view (N=3, mean+SD, normalized to the control).
as §1, with “mean size of aggregates/field” for “total area covered with CaP precipitates/total area field”, “view normalized to the ctrl” for “view”
Overview table showing the minimal concentration of compound (FIG. 3 for the chemical structures) required to achieve complete inhibition of CaP precipitation (total area covered with crystals <10% of total area control); and minimal concentration required to prevent CaP crystal aggregation in the CaP screening assay (CaP aggregate size <50% of aggregate size control) (N=3).
An artificial renal tubular fluid (RTF) with a final composition of 0.05 mM oxalate, 0.005 mM sulphate, 408 mM sodium, 424 mM chloride, 0.26 mM potassium, 4 mM magnesium and 0.2 mM citrate in double distilled water was prepared according to a literature report (Fasano, J. M. et al., Kidney Int. 59, 169-178. DOI: 10.1046/j. 1523-1755.2001.00477.x, 2001). The solution was filtered with a 0.45-μm syringe filter. Twenty mM Bis-Tris buffer was added to the reported protocol to ensure pH stability throughout experiments and pH was set to 7.2. The artificial RTF was stored at room temperature for up to four months. Stock solutions of 0.25 M phosphate and 1 M calcium were prepared in double distilled water and were stored separately at −20° C.
Twenty-x final concentration phosphate, 20× final concentration calcium and 10× final concentration compound dilutions were prepared in RTF. Assay mixture consisting of 80% RTF, 10% compound dilution, 5% phosphate dilution and 5% calcium dilution was prepared in Eppendorf tubes as follows. RTF (320 μL) was mixed with 20 μL phosphate dilution (final concentration of 9 mM), 40 μL compound dilution and 20 μL calcium dilution (final concentration of 8 mM). The assay mixture was vortexed after adding each component and 380 μL of the mixture were immediately added to 8-well glass bottom slides and incubated for 4 hat RT. CaP precipitation was assessed using a Leica DM 6000B microscope (Leica Microsystems, Wetzlar, Germany) in brightfield mode. For quantification 3 wells/condition with 3-4 images/well were imaged with a 40× objective. The total area covered with CaP deposits in percentage of the field of view and the mean size of CaP aggregates were determined.
In a first step, the influence of selected IP6 analogues (FIG. 5) on CaP precipitation and growth was assessed in vitro using artificial renal tubular fluid (RTF) (Table 1). In a previous study, the inventors investigated CaP protein particle formation in serum. However, an important difference to cardiovascular calcification lies in the extremely low protein content of the renal tubular fluid vs. the high abundance of proteins in blood, which can stabilize amorphous particles. Two cut-offs were chosen for assessing efficacy. First, complete inhibition was defined as a >90% reduction of detected CaP precipitates compared to the control sample without compound. Second, inhibition of CaP aggregation was defined as a >50% reduction of the mean size of aggregates when compared to the control.

[2] = tested on: RPTEC/TERT 1 human proximal tubule cells; experiment: CaP-induced CaOx crystallization on RPTEC monolayers; type: cell-based; details: CaP-induced model, 1.2 mM oxalate, 4 h
Experimental: For the assessment of CaP-induced CaOx crystallization, after 24 h of incubation, Ca/P spiked medium was removed, and cells were washed twice with PBS. Subsequently, medium containing 1.2 mM oxalate and compound was added to each well. After 4 h of incubation at 37° C. and 5% CO2 treatment was removed, and cells washed once with PBS before staining.
For staining, ProxUp basal medium was mixed with calcein (500 nM final concentration), EthD (6 μM final concentration), CellMask stain ([…]) and Hoechst 33342. Staining mixture was added to RPTEC and cells were incubated for 30 min in the dark at 37° C. and 5% CO2. Staining solution was removed, cells were washed with PBS once and ProxUp basal medium was added. Cells were immediately imaged after staining. […] For quantification 3 wells/condition were prepared and 3 images/well were taken. […]
To allow rapid profiling of molecules for their effects on diverse kidney calcification processes, the inventors developed a cell-based assay that allowed the monitoring of CaP deposition, as well as cellular changes associated with it. Therefore, the inventors utilized monolayers of renal proximal tubular cells (RPTEC) stained with various dyes to quantify calcification and cell morphology changes (FIG. 3). […] CaP deposits were detected via calcein staining (FIG. 3B). […]

Structure (SMILES): COCCOCCO[C@@H]1C(OP(=O)(O)O)[C@H](OCCOCCOC)[C@@H](OP(=O)(O)O)C(OP(=O)(O)O)[C@H]1OP(=O)(O)O (stereo partly drawn) [(OEG2)2-IP4]
- effect on CaP precipitation/crystallization in words [1]: did not further increase the inhibitory activity
- CaP-induced CaOx crystallization [2]: reduced
- concentration at which COD was almost entirely abolished [2]: 100 µM
